Assay results from the OligoGym collection.
Several values for one entry are separate records, joined by “and”; a condition that tells them apart may be missing. Equal entries are not always repeated. After the bases stand the sugars from the 5' end (letter, count) and the backbone: PS all phosphorothioate, else s phosphorothioate and o phosphodiester by linkage. Methylation of C is not given here. e = 2'-O-(2-methoxyethyl) (MOE); l = locked nucleic acid (LNA); k = constrained ethyl (cEt); d = 2'-deoxy (DNA)

Columns and labels:
[1] = target: SNHG14; settings: ASO, Human Neuronal Cell
[2] = target: SOD1; settings: ASO

TTACACTTAATTATACTTCC (sugars l3 d1 l1 d12 l3, PS)
target mRNA inhibition ([1]; 7.5 µM): 70%

CCTTTAATGCTTCTAAC (sugars l2 d11 l4, PS)
target mRNA inhibition ([1]; 0.2 µM): 35%
target mRNA inhibition ([1]; 1 µM): 53%

ATTTACACTTAATTATACTT (sugars lllldllddddddlldddll, PS)
target mRNA inhibition ([1]; 7.5 µM): 38%

AATTATTTATACACCATCAT (sugars lldldlddddddddllldll, PS)
target mRNA inhibition ([1]; 7.5 µM): 59%

TTCTGTATACACCATCC (sugars l1 d3 l1 d9 l3, PS)
target mRNA inhibition ([1]; 7.5 µM): 64%

TTTTTTTCTTACTATCTTCA (sugars l3 d15 l2, PS)
target mRNA inhibition ([1]; 7.5 µM): 28%

TCCTATATTCTCTTAAA (sugars l4 d11 l2, PS)
target mRNA inhibition ([1]; 0.2 µM): 47%
target mRNA inhibition ([1]; 1 µM): 66%

ATCTTTCCATTTATTTCCAT (sugars ldddldldddddddldddll, PS)
target mRNA inhibition ([1]; 7.5 µM): 30%

AAAATCTCAACTACCATTT (sugars l3 d10 l6, PS)
target mRNA inhibition ([1]; 7.5 µM): 48%

TACACTTAATTATACTTCCA (sugars lddlddlddddddlddddll, PS)
target mRNA inhibition ([1]; 7.5 µM): 61%

TTTACATTCCCATCATC (sugars l2 d11 l4, PS)
target mRNA inhibition ([1]; 0.2 µM): 57%
target mRNA inhibition ([1]; 1 µM): 66%

CTGTATACACCATCCC (sugars l2 d12 l2, PS)
target mRNA inhibition ([1]; 0.2 µM): 62%
target mRNA inhibition ([1]; 1 µM): 62%

TTTATTTCCATTTATTTTC (sugars l5 d7 l1 d3 l3, PS)
target mRNA inhibition ([1]; 7.5 µM): 55%

TTCCCTTTGATAACAT (sugars l4 d10 l2, PS)
target mRNA inhibition ([1]; 0.2 µM): 9%
target mRNA inhibition ([1]; 1 µM): 34%

TATCTTTCCATTTATTTCCA (sugars l1 d17 l2, PS)
target mRNA inhibition ([1]; 7.5 µM): -7%

AAATCTCAACTACCATTTTT (sugars ldlddldddddddllddlll, PS)
target mRNA inhibition ([1]; 7.5 µM): 29%

TTACACTTAATTATACTTCC (sugars ldldddlddddddddlddll, PS)
target mRNA inhibition ([1]; 7.5 µM): 64%

TATACCTTTCTTTAACCCTT (sugars llddldldddddddddddll, PS)
target mRNA inhibition ([1]; 7.5 µM): 60%

CCACTGATTTCCTTAAA (sugars l4 d11 l2, PS)
target mRNA inhibition ([1]; 0.2 µM): 40%
target mRNA inhibition ([1]; 1 µM): 57%

CTCTGCTTATAACTTT (sugars l4 d10 l2, PS)
target mRNA inhibition ([1]; 0.2 µM): 20%
target mRNA inhibition ([1]; 1 µM): 53%

TCTTACCAATAGTTACC (sugars l4 d11 l2, PS)
target mRNA inhibition ([1]; 0.2 µM): 45%
target mRNA inhibition ([1]; 1 µM): 55%

AGATCATTCTCAACAATT (sugars l3 d1 l1 d9 l4, PS)
target mRNA inhibition ([1]; 7.5 µM): 43%

AGTTCTACTATACTTTCC (sugars l1 d12 l1 d2 l2, PS)
target mRNA inhibition ([1]; 7.5 µM): 52%

GTTTATACCCTTTCCAA (sugars l3 d11 l3, PS)
target mRNA inhibition ([1]; 0.2 µM): 57%
target mRNA inhibition ([1]; 1 µM): 63%

GAAAATCTCAACTACCATT (sugars l2 d12 l5, PS)
target mRNA inhibition ([1]; 7.5 µM): 49%

GGCGATCCCAATTACAC (sugars e3 k2 d7 k2 e3, PS)
target mRNA inhibition ([2]; HepG2, 3 µM): 9%

TCCAACATGCCTCTCTT (sugars e3 k2 d7 k2 e3, PS)
target mRNA inhibition ([2]; HepG2, 3 µM): 0%

CCCATCTGTGATTTAAG (sugars e2 k2 d9 k2 e2, PS)
target mRNA inhibition ([2]; HepG2, 5 µM): 49%

CTCGCTAGGCCACGCCGAGG (sugars e5 d10 e5, PS)
target mRNA inhibition ([2]; HepG2, 4 µM): 46%

ATACATTTCTACAGCTA (sugars e3 k2 d7 k2 e3, linkages s1 o2 s9 o2 s2)
target mRNA inhibition ([2]; A431, 0.12 µM): 4%
target mRNA inhibition ([2]; A431, 0.6 µM): 13%
target mRNA inhibition ([2]; A431, 3 µM): 26%
target mRNA inhibition ([2]; A431, 15 µM): 37%

GAACATGGAATCCATGC (sugars e3 k2 d7 k2 e3, PS)
target mRNA inhibition ([2]; HepG2, 3 µM): 9%

ACCTGCACTGGTACAGCCTG (sugars e5 d10 e5, PS)
target mRNA inhibition ([2]; HepG2, 5 µM): 46% and 48%

ATCTGCTTTTTCATGGA (sugars e3 k2 d7 k2 e3, PS)
target mRNA inhibition ([2]; HepG2, 3 µM): 42%

CTGCACTGGTACAGCCTGCT (sugars e5 d10 e5, PS)
target mRNA inhibition ([2]; HepG2, 5 µM): 38% and 29%

ACGACGCAAACCAGCACCCC (sugars e5 d10 e5, PS)
target mRNA inhibition ([2]; HepG2, 4 µM): 30%

ATGAACATGGAATCCAT (sugars e3 k2 d7 k2 e3, PS)
target mRNA inhibition ([2]; HepG2, 3 µM): 8%

CTTTCTTCATTTCCACC (sugars e3 k2 d7 k2 e3, PS)
target mRNA inhibition ([2]; HepG2, 3 µM): 11%

CAAGTGATCATAAATCA (sugars e2 k2 d8 k2 e3, PS)
target mRNA inhibition ([2]; HepG2, 5 µM): 47%

TACTTTCTTCATTTCCA (sugars e3 k2 d7 k2 e3, PS)
target mRNA inhibition ([2]; HepG2, 3 µM): 18%

TAATGTTTATCAGGAT (sugars kekeddddddddekek, linkages s1 o3 s8 o1 s2)
target mRNA inhibition ([2]; A431, 0.12 µM): 0%
target mRNA inhibition ([2]; A431, 0.6 µM): 15%
target mRNA inhibition ([2]; A431, 3 µM): 17%
target mRNA inhibition ([2]; A431, 15 µM): 48%

CCATAACTCGCTAGGCCACG (sugars e5 d10 e5, PS)
target mRNA inhibition ([2]; HepG2, 4 µM): 22%

TAAGTCTGGCAAAATAC (sugars e2 k2 d8 k2 e3, PS)
target mRNA inhibition ([2]; HepG2, 5 µM): 24%

TGGTCTCCTGAGAGTGAGAT (sugars e5 d10 e5, PS)
target mRNA inhibition ([2]; HepG2, 5 µM): 24%

CGCTAGGCCACGCCGAGGTC (sugars e5 d10 e5, PS)
target mRNA inhibition ([2]; HepG2, 4 µM): 52%

GTCTGGCAAAATACAGG (sugars e3 k2 d7 k2 e3, PS)
target mRNA inhibition ([2]; HepG2, 3 µM): 24%

TAAGTGCCATACAGGGTTTT (sugars e5 d10 e5, PS)
target mRNA inhibition ([2]; HepG2, 5 µM): 13%

TTCTACAGCTAGCAGGATAA (sugars e5 d10 e5, PS)
target mRNA inhibition ([2]; HepG2, 2 µM): 50%

CACAGAATCTTCAATAGACA (sugars e5 d10 e5, PS)
target mRNA inhibition ([2]; HepG2, 5 µM): 10% and 14%

CACACCTTCACTGGTCC (sugars e3 k2 d7 k2 e3, PS)
target mRNA inhibition ([2]; HepG2, 3 µM): 12%

TCATAAATCAGTTTCTCACT (sugars e5 d10 e5, PS)
target mRNA inhibition ([2]; HepG2, 5 µM): 21%
